Test results taken from article PMC3441526, “KCN1, a Novel Synthetic Sulfonamide Anticancer Agent: In Vitro and In Vivo Anti-Pancreatic Cancer Activities and Preclinical Pharmacology” (PLoS ONE, 2012).

How the values were obtained:
[1] = Plasma stability determination; type: in vitro ADME, mouse
Experimental: The validated HPLC method was used to evaluate the stability of KCN1 in mouse plasma at 37°C, 4°C and −80°C. KCN1 was dissolved in methanol and diluted with plasma to achieve the two concentrations used in the study: 1 and 10 µM. At the designated time points, samples were removed and extracted using the aforementioned procedure. KCN1 concentrations were quantified and, to illustrate the in vitro stability of the compound, expressed as percentages of the initial concentration.

immortalized fibroblasts = tested on: immortalized fibroblasts; design: method as in PMID 22923450; conditions: immortalized fibroblasts ref 31; cited from earlier work
BxPC3 cells = experiment: MTT cell survival assay; type: cell-based; conditions: Homo sapiens, BXPC-3
Experimental: The effect of the test compound on human pancreatic cancer cell viability, expressed as the percentage of cell survival, was determined using the MTT assay [45]–[47]. Cells were grown in 96-well plates at 4–5×10^3 cells per well and exposed to different concentrations of the test compound (0, 1, 5, 12.5, 25, 50 or 100 µM). After incubation for different times, 10 µL of the MTT solution (5 mg/mL; Sigma; St. Louis, MO) were added into each well. The plates were incubated for 2–4 hr at 37°C. The supernatant was then removed and the formazan crystals were dissolved with 100 µL of DMSO. The absorbance at 570 nm was recorded using an OPTImax microplate reader (Molecular Devices; Sunnyvale, CA). The cell survival percentages were calculated by dividing the mean optical density (OD) of compound-containing wells by that of DMSO-containing control wells. Three separate experiments were accomplished to determine the IC50 values.

For `COc1ccc(S(=O)(=O)N(Cc2ccc3c(c2)C=CC(C)(C)O3)c2ccccc2)cc1OC` [KCN1, 3,4-dimethoxy-N-[(2,2-dimethyl-2H-chromen-6-yl)methyl]-N-phenylbenzenesulfonamide], the “compound remaining in mouse plasma” value ([1]; 4°C, at least 24 hr) was “more than 90%”, the “compound remaining in mouse plasma” value ([1]; 37°C, 8 hr, 1 µM) was “more than 80%” and the “compound remaining in mouse plasma” value ([1]; 37°C, 8 hr, 10 µM) was “more than 80%”. For the same compound, the “compound remaining in mouse plasma” value ([1]; −80°C, up to 4 wks) was “more than 92%”, the cytostatic effect (immortalized fibroblasts) was “little cytostatic effect” and the inhibition at 100 µM (BxPC3 cells; BxPC3, 100 µM, 72 h, read-out: inhibition of cell growth) was 81%. It also gave an IC50 (BxPC3 cells; BxPC3, 72 h, MTT, read-out: Cytotoxicity: IC50) of 14.62 ± 0.1 µM.
